Test results taken from US20060166905A1, “Aivlosin for the treatment of disease due to brachyspira pilosicoli or ornithobacterium rhinotracheale” (ECO Animal Health, LTD., priority 2003, published 2006).
Converted amounts (≈) assume the structure as drawn. Like-named read-outs stand apart in the source and are kept apart here.

Experiments:
Type in all cases: cell-based
[1] = system: Brachyspira hyodysenteriae (P18A); experiment: MIC by antibiotic dilution method in agar plates, control strain; details: Control P1 8A
Procedure: (§1) The MIC of acetyl isovaleryltylosin was determined against 5 field strains of Brachyspira pilosicoli isolated from different pig populations in various parts of England using an antibiotic dilution method. Four replicates of 0.2 ml of each isolate were inoculated into agar plates prepared with antibiotic concentrations from 0.78 to 200 μg/ml. A strain of Brachyspira hyodysenteriae (P18A), for which the MIC for acetyl isovaleryltylosin was already known, was used as a control.

Brachyspira pilosicoli = experiment: MIC of aivlosin by antibiotic dilution method in agar plates
Procedure: Determination of Minimum Inhibitory Concentration (MIC) of Aivlosin Against Brachyspira pilosicoli
as §1

[2] = system: Ornithobacterium rhinotracheale; experiment: MIC test, twofold dilution in serum broth; details: for MIC: Ornithobacterium rhinotracheale, read-out: concentration that inhibited the growth (MIC)
Procedure: Testing of Aivlosin and Tilmicosin (Pulmotil) Against Ornithobacterium rhinotracheale Using the MIC (Minimum Inhibitory Concentration) Test
The following antibiotics were each tested against four isolates of Ornithobacterium rhinotracheale (OR):
The antibiotics were tested against the following isolates of OR:
The concentration needed of each antibiotic was calculated according to its active ingredient.
The four freeze dried bacterial isolates of Ornithobacterium rhinotracheale were reconstituted, inoculated into 10 ml serum broth (supplied by OBP, code 655) and incubated at 37° C. for 48 hours. After incubation the optical density (OD) of each culture was read at 540 nm. To verify purity the cultures were plated out onto Blood Tryptose agar plates, incubated at 37° C., using 5 % CO2 conditions, for 48 hours after which the plates were examined for any contaminants.
12 tubes per isolate for each of the antibiotics were placed into a test tube rack. 2 ml serum broth was dispensed into each of the tubes. 2 ml of the antibiotic were then added to the first tube in the respective row and a twofold dilution were made (32 μg/ml-0.0625 μg/ml). 20 μl of the bacteria was then added to 11 of the tubes. The 12th tube, i.e. negative control received neither antibiotic nor bacteria. The 11th tube i.e. positive control only received 20 μl bacteria. All the tubes were then incubated at 37° C. and the MIC read after 48 hours incubation

[3] = even at relatively low concentrations

Row | Compound | MIC [1] | preventing the growth of Brachyspira pilosicoli (Brachyspira pilosicoli; [3]) | MIC (Brachyspira pilosicoli; field strain 0P0204-10-97(4)) | MIC (Brachyspira pilosicoli; field strain P0098-10-97) | MIC (Brachyspira pilosicoli; field strain P0352-10-98) | MIC (Brachyspira pilosicoli; field strain P0525-01-98) | MIC (Brachyspira pilosicoli; field strain P0730-09-97) | MIC range (Brachyspira pilosicoli; field strains, with the exception of isolate P0204-10-97 (4)) | preventing the growth of Ornithobacterium rhinotracheale [2, 3] | concentration that inhibited the growth (MIC) ([2]; the isolates tested (four)) | MIC ([2]; the fourth isolate) | MIC ([2]; three of the isolates tested)
1 | CCC1OC(=O)CC(OC(C)=O)C(C)C(OC2OC(C)C(OC3CC(C)(O)C(OC(=O)CC(C)C)C(C)O3)C(N(C)C)C2O)C(CC=O)CC(C)C(=O)C=CC(C)=CC1COC1OC(C)C(O)C(OC)C1OC (stereo not drawn) [Aivlosin, 3-O-acetyl-4″-O-isovaleryl-tylosin] | 12.5 µg/mL (≈ 12 µM) | particularly effective | <0.781 µg/mL | 25.0 µg/mL | 6.25 µg/mL | 6.25 µg/mL | 12.5 µg/mL | 6.25 to 25.0 µg/mL | particularly effective | 0.5 µg/mL |  | 
2 | CC[C@H]1OC(=O)C[C@@H](O)[C@H](C)[C@@H](O[C@@H]2O[C@H](C)[C@@H](O)[C@H](N(C)C)[C@H]2O)[C@@H](CCN2C[C@H](C)C[C@H](C)C2)C[C@@H](C)C(=O)/C=C/C(C)=C/[C@@H]1CO[C@@H]1O[C@H](C)[C@@H](O)[C@@H](OC)[C@H]1OC [Pulmotil, Tilmicosin] |  |  |  |  |  |  |  |  |  |  | 8 µg/mL (≈ 9.2 µM) | 4 µg/mL (≈ 4.6 µM)
